We go through seven compounds from patent publication US4435387A, “Poly-cation salts of bis (or tris) 4-O-polyhexose-thio-arylene sulfate derivatives” (American Cyanamid Company, priority 1982, dated 1984).

Read-outs that look alike come from different tables or passages of the source.

By inhibition is commonly meant the percentage by which the read-out fell short of the control.

In experiment [1] the test system is hereditary angioneurotic edema. The conditions noted are these: literature reports; cited from earlier work.
The target in experiment [2] is T1, activated human C1 (Homo sapiens, UniProt P09871).
T1 construct: fluid-phase C2 destruction with C4 present
The experiment can be described thus: Test Code 026 (C1 inhibitor). It is filed as biochemical. Conditions: in vitro; twofold serial dilution assay, higher well number indicates higher activity. The method, then: (§1) Percent inhibition is calculated by comparison with simultaneous controls.
(§2) **Activity in wells, a serial dilution assay; higher well number indicate
(§3) higher activity. The serial dilutions are twofold.

Experiment [3] concerns late components of human complement (C3-C9). The experiment is described as follows: Test Code 035 (C3-C9 inhibitor), lysis of EAC 142. It counts as biochemical. The conditions noted are these: in vitro; twofold serial dilution assay, higher well number indicates higher activity. On the procedure:
as §1, §2, §3

For experiment [4], the system named is human serum total hemolytic complement activity. The conditions noted are these: in vitro and in vivo, judged by reduction in total hemolytic complement activity; Pathol. Biol. 25 (1977); cited from earlier work.
The subject of experiment [5] is complement activity of guinea pig sera. The experiment is described as follows: Guinea Pig Intraperitoneal Test (GPIP). The conditions noted are these: Cavia porcellus, ip, 200 mg/kg i.p. It is filed as in vivo. The method, then: as §1

T1 sequence (P09871 16-688): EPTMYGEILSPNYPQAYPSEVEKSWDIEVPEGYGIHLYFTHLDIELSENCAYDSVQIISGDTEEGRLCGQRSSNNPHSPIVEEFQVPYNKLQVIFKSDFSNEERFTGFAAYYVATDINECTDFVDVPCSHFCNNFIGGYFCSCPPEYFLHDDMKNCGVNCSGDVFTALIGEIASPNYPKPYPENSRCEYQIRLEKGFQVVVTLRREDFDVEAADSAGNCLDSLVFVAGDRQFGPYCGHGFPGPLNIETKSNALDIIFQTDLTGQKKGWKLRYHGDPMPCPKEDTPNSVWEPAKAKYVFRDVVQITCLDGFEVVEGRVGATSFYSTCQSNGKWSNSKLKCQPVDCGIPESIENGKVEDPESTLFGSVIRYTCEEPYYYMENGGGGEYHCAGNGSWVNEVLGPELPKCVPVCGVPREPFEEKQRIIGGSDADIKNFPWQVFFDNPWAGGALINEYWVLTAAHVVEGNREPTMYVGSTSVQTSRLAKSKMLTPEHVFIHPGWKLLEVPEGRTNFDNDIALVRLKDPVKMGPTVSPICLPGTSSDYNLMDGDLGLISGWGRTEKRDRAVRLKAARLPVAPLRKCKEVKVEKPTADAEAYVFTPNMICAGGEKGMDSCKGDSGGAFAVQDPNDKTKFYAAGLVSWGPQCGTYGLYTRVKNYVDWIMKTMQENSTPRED
T1 sequence (P00736 18-705 partner): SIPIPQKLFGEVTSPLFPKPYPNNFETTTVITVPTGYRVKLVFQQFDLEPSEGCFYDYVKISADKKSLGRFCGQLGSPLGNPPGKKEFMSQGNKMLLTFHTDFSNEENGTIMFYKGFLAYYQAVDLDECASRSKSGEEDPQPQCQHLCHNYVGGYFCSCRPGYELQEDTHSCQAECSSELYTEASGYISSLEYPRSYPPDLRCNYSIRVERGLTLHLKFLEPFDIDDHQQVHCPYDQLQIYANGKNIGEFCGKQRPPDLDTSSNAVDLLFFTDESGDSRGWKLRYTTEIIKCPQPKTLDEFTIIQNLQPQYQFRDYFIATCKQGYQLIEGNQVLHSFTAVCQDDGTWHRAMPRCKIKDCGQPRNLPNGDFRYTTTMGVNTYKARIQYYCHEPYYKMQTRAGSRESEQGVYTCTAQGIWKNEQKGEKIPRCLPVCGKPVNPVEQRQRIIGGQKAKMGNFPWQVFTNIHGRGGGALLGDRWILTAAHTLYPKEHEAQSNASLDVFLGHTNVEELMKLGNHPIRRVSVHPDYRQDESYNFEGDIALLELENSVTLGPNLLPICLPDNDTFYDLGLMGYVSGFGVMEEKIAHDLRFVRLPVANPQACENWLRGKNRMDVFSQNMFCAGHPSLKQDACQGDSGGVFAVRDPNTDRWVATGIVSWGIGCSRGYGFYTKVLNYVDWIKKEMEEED
T1 sequence (P02745 23-245 partner): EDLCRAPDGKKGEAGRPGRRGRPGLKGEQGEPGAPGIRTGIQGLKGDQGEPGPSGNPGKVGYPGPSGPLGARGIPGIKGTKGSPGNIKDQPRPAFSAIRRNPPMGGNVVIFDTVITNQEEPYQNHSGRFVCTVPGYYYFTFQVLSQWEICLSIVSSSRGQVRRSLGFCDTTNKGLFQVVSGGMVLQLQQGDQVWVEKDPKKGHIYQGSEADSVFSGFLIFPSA
T1 sequence (P02746 28-253 partner): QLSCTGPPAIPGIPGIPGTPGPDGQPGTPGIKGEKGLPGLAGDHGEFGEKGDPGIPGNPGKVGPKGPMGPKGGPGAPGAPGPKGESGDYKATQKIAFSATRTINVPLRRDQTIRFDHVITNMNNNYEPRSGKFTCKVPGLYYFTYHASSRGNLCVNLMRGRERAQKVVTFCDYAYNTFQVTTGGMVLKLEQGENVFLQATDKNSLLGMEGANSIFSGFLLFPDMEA
T1 sequence (P02747 29-245 partner): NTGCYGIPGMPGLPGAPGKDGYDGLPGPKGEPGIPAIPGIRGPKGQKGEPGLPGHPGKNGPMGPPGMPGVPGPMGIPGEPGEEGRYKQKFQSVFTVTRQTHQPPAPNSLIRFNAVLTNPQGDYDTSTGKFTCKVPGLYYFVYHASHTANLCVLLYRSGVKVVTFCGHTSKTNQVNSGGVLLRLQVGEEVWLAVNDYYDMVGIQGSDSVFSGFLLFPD

For `NC[C@H]1CC[C@H](C(=O)O)CC1` [tranexamic acid], the “treatment of hereditary angioneurotic edema” value in experiment [1] is “used with success”.
With `O=S(=O)(O)OC[C@H]1O[C@@H](Sc2ccc(NS(=O)(=O)c3cc(S(=O)(=O)Nc4ccc(S[C@@H]5O[C@H](COS(=O)(=O)O)[C@@H](O[C@H]6O[C@H](COS(=O)(=O)O)[C@@H](OS(=O)(=O)O)[C@H](OS(=O)(=O)O)[C@H]6OS(=O)(=O)O)[C@H](OS(=O)(=O)O)[C@H]5OS(=O)(=O)O)cc4)cc(S(=O)(=O)Nc4ccc(S[C@@H]5O[C@H](COS(=O)(=O)O)[C@@H](O[C@H]6O[C@H](COS(=O)(=O)O)[C@@H](OS(=O)(=O)O)[C@H](OS(=O)(=O)O)[C@H]6OS(=O)(=O)O)[C@H](OS(=O)(=O)O)[C@H]5OS(=O)(=O)O)cc4)c3)cc2)[C@H](OS(=O)(=O)O)[C@@H](OS(=O)(=O)O)[C@@H]1O[C@H]1O[C@H](COS(=O)(=O)O)[C@@H](OS(=O)(=O)O)[C@H](OS(=O)(=O)O)[C@H]1OS(=O)(=O)O.[Na].[Na].[Na].[Na].[Na].[Na].[Na].[Na].[Na].[Na].[Na].[Na].[Na].[Na].[Na].[Na].[Na].[Na].[Na].[Na].[Na]` [Heneicosasodium N,N',N"-tris[4-[[2,3,6-tri-O-sulfo-4-O-(2,3,4,6-tetra-O-sulfo-α-D-glucopyranosyl)-β-D-glucopyranosyl]thio]phenyl]-1,3,5-benzenetrisulfonamide], in experiment [2], the “C-1 026 Wells” value amounted to 9 Wells. Besides, in experiment [3], the “C-Late 035 Wells” value is recorded as 3 Wells.
Regarding pentosan-polysulfoester, the “anticomplementary activity on human serum” value in experiment [4] is “anticomplementary activity”.
As for `NCCCCCC(=O)O` [epsilon-aminocaproic acid], the “treatment of hereditary angioneurotic edema” value in experiment [1] is on record as “used with success”.
For the compound `O=C(Nc1ccc(S[C@@H]2O[C@H](COS(=O)(=O)O)[C@@H](O[C@H]3O[C@H](COS(=O)(=O)O)[C@@H](OS(=O)(=O)O)[C@H](OS(=O)(=O)O)[C@H]3OS(=O)(=O)O)[C@H](OS(=O)(=O)O)[C@H]2OS(=O)(=O)O)cc1)c1cc(C(=O)Nc2ccc(S[C@@H]3O[C@H](COS(=O)(=O)O)[C@@H](O[C@H]4O[C@H](COS(=O)(=O)O)[C@@H](OS(=O)(=O)O)[C@H](OS(=O)(=O)O)[C@H]4OS(=O)(=O)O)[C@H](OS(=O)(=O)O)[C@H]3OS(=O)(=O)O)cc2)cc(C(=O)Nc2ccc(S[C@@H]3O[C@H](COS(=O)(=O)O)[C@@H](O[C@H]4O[C@H](COS(=O)(=O)O)[C@@H](OS(=O)(=O)O)[C@H](OS(=O)(=O)O)[C@H]4OS(=O)(=O)O)[C@H](OS(=O)(=O)O)[C@H]3OS(=O)(=O)O)cc2)c1.[Na].[Na].[Na].[Na].[Na].[Na].[Na].[Na].[Na].[Na].[Na].[Na].[Na].[Na].[Na].[Na].[Na].[Na].[Na].[Na].[Na]` [Heneicosasodium N,N',N"-tris[4-[[2,3,6-tri-O-sulfo-4-O-(2,3,4,6-tetra-O-sulfo-α-D-glucopyranosyl)-β-D-glucopyranosyl]thio]phenyl]-1,3,5-benzenetricarboxamide], the “C-1 026 Wells” value in experiment [2] came to 8 Wells. In experiment [3], the “C-Late 035 Wells” value is 2 Wells.
Take `O=S(=O)(O)OC[C@H]1O[C@@H](Sc2ccc(NS(=O)(=O)c3cc(S(=O)(=O)Nc4ccc(S[C@@H]5O[C@H](COS(=O)(=O)O)[C@@H](O[C@@H]6O[C@H](COS(=O)(=O)O)[C@@H](OS(=O)(=O)O)[C@H](OS(=O)(=O)O)[C@H]6OS(=O)(=O)O)[C@H](OS(=O)(=O)O)[C@H]5OS(=O)(=O)O)cc4)cc(S(=O)(=O)Nc4ccc(S[C@@H]5O[C@H](COS(=O)(=O)O)[C@@H](O[C@@H]6O[C@H](COS(=O)(=O)O)[C@@H](OS(=O)(=O)O)[C@H](OS(=O)(=O)O)[C@H]6OS(=O)(=O)O)[C@H](OS(=O)(=O)O)[C@H]5OS(=O)(=O)O)cc4)c3)cc2)[C@H](OS(=O)(=O)O)[C@@H](OS(=O)(=O)O)[C@@H]1O[C@@H]1O[C@H](COS(=O)(=O)O)[C@@H](OS(=O)(=O)O)[C@H](OS(=O)(=O)O)[C@H]1OS(=O)(=O)O.[Na].[Na].[Na].[Na].[Na].[Na].[Na].[Na].[Na].[Na].[Na].[Na].[Na].[Na].[Na].[Na].[Na].[Na].[Na].[Na].[Na]` [Heneicosasodium N,N',N"-tris[4-[[2,3,6-tri-O-sulfo-4-O-(2,3,4,6-tetra-O-sulfo-β-D-glucopyranosyl)-β-D-glucopyranosyl]thio]phenyl]-1,3,5-benzenetrisulfonamide]: in experiment [2], the “C-1 026 Wells” value was determined as 12 Wells. Moreover, in experiment [3], the “C-Late 035 Wells” value came out at 3 Wells.
Take `O=C(Nc1ccc(S[C@@H]2O[C@H](COS(=O)(=O)O)[C@@H](O[C@H]3O[C@H](COS(=O)(=O)O)[C@@H](OS(=O)(=O)O)[C@H](OS(=O)(=O)O)[C@H]3OS(=O)(=O)O)[C@H](OS(=O)(=O)O)[C@H]2OS(=O)(=O)O)cc1)c1ccc(C(=O)Nc2ccc(S[C@@H]3O[C@H](COS(=O)(=O)O)[C@@H](O[C@H]4O[C@H](COS(=O)(=O)O)[C@@H](OS(=O)(=O)O)[C@H](OS(=O)(=O)O)[C@H]4OS(=O)(=O)O)[C@H](OS(=O)(=O)O)[C@H]3OS(=O)(=O)O)cc2)cc1.[Na].[Na].[Na].[Na].[Na].[Na].[Na].[Na].[Na].[Na].[Na].[Na].[Na].[Na]` [Tetradecasodium N,N'-bis[4-[[2,3,6-tri-O-sulfo-4-O-(2,3,4,6-tetra-O-sulfo-α-D-glucopyranosyl)-β-D-glucopyranosyl]thio]phenyl]-1,4-benzenedicarboxamide]: the inhibition at 200 mg/kg in experiment [5] (serum complement 2 hours after injection, read-out: In vivo Activity (Guinea Pig % Inhibition) Intraperitoneal, 2 hours) amounted to 87%; in experiment [5] (serum complement 6 hours after injection, read-out: In vivo Activity (Guinea Pig % Inhibition) Intraperitoneal, 6 hours) it was 90%; in experiment [5] (serum complement 24 hours after injection, read-out: In vivo Activity (Guinea Pig % Inhibition) Intraperitoneal, 24 hours), 62%. Also, the “C-1 026 Wells” value in experiment [2] stood at 9 Wells. Moreover, in experiment [3], the “C-Late 035 Wells” value worked out at 2 Wells.
